Blank lines part the entries; values can stand above or below the compound they belong to. Active and inactive are the calls of the source.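 The calls were made as follows: active = client protein degradation above 50% for Her2 or AKT on Western blot; inactive = client protein degradation below 10%.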
What was measured:
[1] = biological target: RAC-alpha serine/threonine-protein kinase (Homo sapiens) (UniProt P31749); assay: Her2 and AKT client protein degradation, late-stage follow-up, mechanism study, cell-based, Western blot, MCF7 (AID 686974); details: 24 h, AKT, active compounds read high
Sequence of RAC-alpha serine/threonine-protein kinase (Homo sapiens) (P31749 whole entry, looked up): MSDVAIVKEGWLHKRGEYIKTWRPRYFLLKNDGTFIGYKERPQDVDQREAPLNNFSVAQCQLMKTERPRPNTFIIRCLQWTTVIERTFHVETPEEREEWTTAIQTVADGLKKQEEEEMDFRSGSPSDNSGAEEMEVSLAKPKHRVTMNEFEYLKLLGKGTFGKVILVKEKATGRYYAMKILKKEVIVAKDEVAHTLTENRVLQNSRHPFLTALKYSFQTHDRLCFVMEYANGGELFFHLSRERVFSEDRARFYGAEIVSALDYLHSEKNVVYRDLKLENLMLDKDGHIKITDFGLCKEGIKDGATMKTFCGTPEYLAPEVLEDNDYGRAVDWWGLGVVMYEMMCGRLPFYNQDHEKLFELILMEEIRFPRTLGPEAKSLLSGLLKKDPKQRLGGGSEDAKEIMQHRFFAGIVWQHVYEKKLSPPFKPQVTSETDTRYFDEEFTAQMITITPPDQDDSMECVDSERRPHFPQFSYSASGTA

[2] = biological target: Receptor tyrosine-protein kinase erbB-2 (Homo sapiens) (UniProt P04626); assay: as above; details: 24 h, active compounds read high
Sequence of Receptor tyrosine-protein kinase erbB-2 (Homo sapiens) (P04626 whole entry, looked up): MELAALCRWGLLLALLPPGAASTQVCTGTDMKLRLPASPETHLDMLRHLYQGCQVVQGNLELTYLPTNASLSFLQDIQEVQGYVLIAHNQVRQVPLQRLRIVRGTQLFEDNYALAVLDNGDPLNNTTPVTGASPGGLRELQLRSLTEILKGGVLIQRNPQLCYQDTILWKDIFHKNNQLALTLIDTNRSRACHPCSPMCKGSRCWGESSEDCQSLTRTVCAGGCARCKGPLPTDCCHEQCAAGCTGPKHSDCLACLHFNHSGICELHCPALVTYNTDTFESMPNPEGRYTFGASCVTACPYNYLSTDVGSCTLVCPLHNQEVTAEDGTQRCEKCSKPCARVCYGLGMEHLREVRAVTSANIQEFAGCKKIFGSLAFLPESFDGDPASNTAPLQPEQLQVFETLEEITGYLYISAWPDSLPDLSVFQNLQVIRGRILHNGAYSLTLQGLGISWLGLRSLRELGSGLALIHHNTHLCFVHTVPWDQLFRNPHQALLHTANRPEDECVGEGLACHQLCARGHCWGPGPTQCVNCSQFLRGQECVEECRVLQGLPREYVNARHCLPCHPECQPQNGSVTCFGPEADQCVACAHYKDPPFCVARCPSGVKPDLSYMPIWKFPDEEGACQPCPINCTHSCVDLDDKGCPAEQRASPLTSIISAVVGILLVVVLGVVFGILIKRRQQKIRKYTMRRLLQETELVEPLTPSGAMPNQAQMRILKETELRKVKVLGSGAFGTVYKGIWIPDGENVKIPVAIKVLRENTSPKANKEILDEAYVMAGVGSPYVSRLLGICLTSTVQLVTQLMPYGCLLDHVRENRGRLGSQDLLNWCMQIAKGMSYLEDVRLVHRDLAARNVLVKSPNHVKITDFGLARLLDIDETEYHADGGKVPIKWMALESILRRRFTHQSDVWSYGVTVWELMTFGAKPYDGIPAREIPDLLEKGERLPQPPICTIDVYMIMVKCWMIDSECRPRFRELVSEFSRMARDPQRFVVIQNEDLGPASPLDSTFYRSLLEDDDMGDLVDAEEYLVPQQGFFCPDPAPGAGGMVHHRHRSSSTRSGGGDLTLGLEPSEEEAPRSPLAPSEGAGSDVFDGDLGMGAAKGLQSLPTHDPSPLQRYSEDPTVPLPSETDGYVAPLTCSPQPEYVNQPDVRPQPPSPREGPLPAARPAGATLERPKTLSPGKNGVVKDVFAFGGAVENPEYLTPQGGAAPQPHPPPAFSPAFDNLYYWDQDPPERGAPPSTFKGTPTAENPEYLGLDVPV

SMILES: COC(=O)c1ccc2nc(NC(=O)C3CC3)sc2c1
client protein degradation ([1]; high dose (five times the growth IC50) 246 µM, low dose (half the growth IC50) 24.6 µM): < 10% (inactive)
client protein degradation ([2]; Her2, high dose (five times the growth IC50) 246 µM, low dose (half the growth IC50) 24.6 µM): < 10% (inactive)

SMILES: CCCCCCCCOc1ccc(NC(=O)c2coc(=O)c(Br)c2)cc1
client protein degradation ([1]; high dose (five times the growth IC50) 64.5 µM, low dose (half the growth IC50) 6.5 µM): < 10% (inactive)
client protein degradation ([2]; Her2, high dose (five times the growth IC50) 64.5 µM, low dose (half the growth IC50) 6.5 µM): > 50%

SMILES: O=C(NCCc1ccc(F)cc1)c1coc(=O)c(Br)c1
client protein degradation ([1]; high dose (five times the growth IC50) 10.5 µM, low dose (half the growth IC50) 1.1 µM): < 10% (inactive)
client protein degradation ([2]; Her2, high dose (five times the growth IC50) 10.5 µM, low dose (half the growth IC50) 1.1 µM): > 50%

SMILES: CCOc1ccc(-c2nc(CN3CCCCC3CCn3cccn3)c(C)o2)cc1 (configuration not stated)
client protein degradation ([1]; high dose (five times the growth IC50) 111 µM, low dose (half the growth IC50) 11.1 µM): < 10% (inactive)
client protein degradation ([2]; Her2, high dose (five times the growth IC50) 111 µM, low dose (half the growth IC50) 11.1 µM): < 10% (inactive)

SMILES: CCCCOc1cccc(NC(=O)c2coc(=O)c(Br)c2)c1
client protein degradation ([1]; high dose (five times the growth IC50) 114 µM, low dose (half the growth IC50) 11.4 µM): < 10% (inactive)
client protein degradation ([2]; Her2, high dose (five times the growth IC50) 114 µM, low dose (half the growth IC50) 11.4 µM): > 50%

SMILES: COc1ccc(NC(=O)c2ccc(NC(=O)c3coc(=O)c(Br)c3)cc2)cc1
client protein degradation ([1]; high dose (five times the growth IC50) 60.5 µM, low dose (half the growth IC50) 6.1 µM): < 10% (inactive)
client protein degradation ([2]; Her2, high dose (five times the growth IC50) 60.5 µM, low dose (half the growth IC50) 6.1 µM): < 10% (inactive)

SMILES: CC(=O)c1ccc(NC(=O)c2coc(=O)c(Br)c2)cc1
client protein degradation ([1]; high dose (five times the growth IC50) 53.5 µM, low dose (half the growth IC50) 5.4 µM): < 10% (inactive)
client protein degradation ([2]; Her2, high dose (five times the growth IC50) 53.5 µM, low dose (half the growth IC50) 5.4 µM): > 50%

SMILES: O=C(NCc1cccnc1)c1coc(=O)c(Br)c1
client protein degradation ([1]; high dose (five times the growth IC50) 17.5 µM, low dose (half the growth IC50) 1.8 µM): < 10% (inactive)
client protein degradation ([2]; Her2, high dose (five times the growth IC50) 17.5 µM, low dose (half the growth IC50) 1.8 µM): > 50%

More lines, now with the values ahead:

client protein degradation ([1]; high dose (five times the growth IC50) 136.5 µM, low dose (half the growth IC50) 13.7 µM): < 10% (inactive)
client protein degradation ([2]; Her2, high dose (five times the growth IC50) 136.5 µM, low dose (half the growth IC50) 13.7 µM): > 50%
SMILES: Cc1cccc(NC(=O)c2coc(=O)c(Br)c2)n1

client protein degradation ([1]; high dose (five times the growth IC50) 9 µM, low dose (half the growth IC50) 0.9 µM): < 10% (inactive)
client protein degradation ([2]; Her2, high dose (five times the growth IC50) 9 µM, low dose (half the growth IC50) 0.9 µM): > 50%
SMILES: CC(NC(=O)c1coc(=O)c(Br)c1)C1C2CCC3CC(C2)CC31 (configuration not stated)

client protein degradation ([1]; high dose (five times the growth IC50) 17 µM, low dose (half the growth IC50) 1.7 µM): > 50%
client protein degradation ([2]; Her2, high dose (five times the growth IC50) 17 µM, low dose (half the growth IC50) 1.7 µM): > 50%
SMILES: O=C(Nc1ccc(F)cc1)c1coc(=O)c(Br)c1

client protein degradation ([1]; high dose (five times the growth IC50) 44.5 µM, low dose (half the growth IC50) 4.5 µM): < 10% (inactive)
client protein degradation ([2]; Her2, high dose (five times the growth IC50) 44.5 µM, low dose (half the growth IC50) 4.5 µM): < 10% (inactive)
SMILES: Cc1cc(NC(=O)c2coc(=O)c(Br)c2)ccc1C(C)C

client protein degradation ([1]; high dose (five times the growth IC50) 24 µM, low dose (half the growth IC50) 2.4 µM): > 50%
client protein degradation ([2]; Her2, high dose (five times the growth IC50) 24 µM, low dose (half the growth IC50) 2.4 µM): > 50%
SMILES: O=C(NCc1ccco1)c1coc(=O)c(Br)c1

client protein degradation ([1]; high dose (five times the growth IC50) 37.5 µM, low dose (half the growth IC50) 3.8 µM): < 10% (inactive)
client protein degradation ([2]; Her2, high dose (five times the growth IC50) 37.5 µM, low dose (half the growth IC50) 3.8 µM): > 50%
SMILES: CC(C)CNC(=O)c1coc(=O)c(Br)c1

client protein degradation ([1]; high dose (five times the growth IC50) 12 µM, low dose (half the growth IC50) 1.2 µM): > 50%
client protein degradation ([2]; Her2, high dose (five times the growth IC50) 12 µM, low dose (half the growth IC50) 1.2 µM): > 50%
SMILES: COc1ccc(NC(=O)c2coc(=O)c(Br)c2)cc1

client protein degradation ([1]; high dose (five times the growth IC50) 147 µM, low dose (half the growth IC50) 14.7 µM): > 50%
client protein degradation ([2]; Her2, high dose (five times the growth IC50) 147 µM, low dose (half the growth IC50) 14.7 µM): > 50%
SMILES: O=C(Nc1ccccc1I)c1coc(=O)c(Br)c1

— PubChem BioAssay AID686974 (The Scripps Research Institute Molecular Screening Center, 2013)
